Source: patent US20200121589A1, “COMPOSITIONS FOR DRUG DELIVERY AND METHODS OF USE THEREOF” (Viramal Limited, priority 2017, published 2020)
Several values for one entry are separate records, joined by “and”; a condition that tells them apart may be missing. Identical values can stand only once.

Experiments:
[1] = Danazol concentrations in serum, peritoneal fluid and peritoneal tissue after oral or vaginal administration to female human subjects; format: in vivo; conditions: for Systemic, Average / Systemic: serum
Procedure: The following example illustrates an administering of either a vaginal or oral formulation of danazol to female human subjects. The vaginal formulation was prepared as described above in Example 2. The oral formulation contained a total dose of 200 mg of danazol present in a capsule body of titanium dioxide and gelatin, and formulated with starch, lactose, talcum and magnesium stearate.
Subjects were administered danazol daily for five days. Six subjects were given a total dose of 600 mg of the oral danazol formulation (3×200 mg) once daily for five days. Seven subjects were given the vaginal formulation containing a total of 100 mg danazol. Samples were then taken from each subject in order to determine the concentration of danazol present systemically, in peritoneal fluid, and in peritoneal tissue. In order to quantify the amount of danazol present systemically, serum samples were collected from each subject and analyzed as described above in Example 3. In order to determine the amount of danazol present in the peritoneal fluid and tissue, endometrial lesions or suspected lesions were harvested, and the amount of danazol present in the samples was quantified as described in Example 3.

[2] = in vivo; cited from earlier work
[3] = Oral - 600 mg Danazol daily for five days, average of six subjects
[4] = Oral - 600 mg Danazol daily for five days, individual subject
[5] = Vaginal - 100 mg Danazol daily for five days, average of seven subjects
[6] = Vaginal - 100 mg Danazol daily for five days, individual subject

C#C[C@]1(O)CC[C@H]2[C@@H]3CCC4=Cc5oncc5C[C@]4(C)[C@H]3CC[C@@]21C [Danazol]
Peritoneal Fluid, Average [1, 3]: 83.4 ng/mL
Peritoneal Fluid [1, 4]: 134 ng/mL and 16.2 ng/mL and 132.8 ng/mL and 19.2 ng/mL and 130.7 ng/mL and 67.7 ng/mL
Systemic, Average [1, 3]: 156.5 ng/mL
Systemic [1, 4]: 209 ng/mL and 141.3 ng/mL and 167 ng/mL and 109.7 ng/mL and 198.3 ng/mL and 113.4 ng/mL
Estimated Peritoneal Tissue, Average [1, 5]: 16.5 ng/mg
Peritoneal Fluid, Average [1, 5]: 1.2 ng/mL
Estimated Peritoneal Tissue [1, 6]: 8.4 ng/mg and 13.2 ng/mg and 13.6 ng/mg and 17.2 ng/mg and 16.4 ng/mg and 29.2 ng/mg and 17.6 ng/mg
Peritoneal Fluid [1, 6]: 1 ng/mL (4×) and 1.2 ng/mL and 1.6 ng/mL and 1.8 ng/mL
Systemic, Average [1, 5]: 4.1 ng/mL
Systemic [1, 6]: 2.1 ng/mL and 3.3 ng/mL and 3.4 ng/mL and 4.3 ng/mL and 4.1 ng/mL and 7.3 ng/mL and 4.4 ng/mL
half-life [2]: 9.7 h
